Patent US10220019B2, “Method for treating pulmonary fibrosis comprising application of dimethylamino micheliolide” (Tianjin International Joint Academy of Biotechnology & …, priority 2016, dated 2019)

Test system: mouse pulmonary fibrosis model
Assay: Mouse pulmonary fibrosis model and pharmacodynamics test of ACT001
Assay type: in vivo, Kunming mice (male)
Description: a) Preparation of ACT001 solution: 1 g ACT001 powder was weighed and dissolved in 100 mL 0.9% normal saline solution to prepare 10 mg/mL solution. When it was fully dissolved, it was filter sterilized with 0.22 μm filter for use, and was freshly prepared each time before use. The preparation and the use of the solution should be performed in a sterile biosafety cabinet.
b) Preparation of ethyl viologen hydrate solution: 2 g ethyl viologen hydrate was weighed and dissolved in 100 mL 0.9% normal saline to prepare 20 mg/mL solution. When it was fully dissolved, it was filter sterilized with 0.22 μm filter for use, and was freshly prepared each time before each use. The preparation and the use of the solution should be performed in a sterile biosafety cabinet.
Randomly divide 36 mice into three groups: normal group, control group (pulmonary fibrosis model group), ACT001 group (administering ACT001 after modeling), and 12 animals per group. Conduct a one-off intragastric administration of 0.15 mL of 0.9% normal saline to each animal in the normal group; and conduct a one-off intragastric administration of 0.15 mL of the ethyl viologen hydrate solution to each animal in the control group and ACT001 group.
3 weeks after modeling, drug treatment was given to the mice. Conduct an intragastric administration of 0.1 mL of 0.9% normal saline to each animal in the normal and control groups, and conduct an intragastric administration of 0.1 mL ACT001 aqueous solution to each animal in the ACT001 group. Once every 2 days.
At the third week after modeling, the second week after drug administration, and the third week after drug administration, four mice were each taken from the normal group, control group and ACT001 group, sacrificed by breaking their necks, their lung tissues were sampled, after fixing the tissues with 10% formalin for two days, the fixing solution on the surface of the lung tissues was washed away with running water, the lung tissues were then dehydrated with a pathological tissue dehydration machine, the tissues were embed in paraffin, the embedded tissues were sectioned, H.E. staining was conducted and slides were covered before observing the changes of the lung tissues under microscope.

[1] = after 3 weeks of drug administration
[2] = second week after ACT001 administration, intragastric 0.1 mL once every 2 days

CC1=C2CC[C@@](C)(O)C2[C@H]2OC(=O)[C@@H](CN(C)C)[C@@H]2CC1 (stereo partly shown) [ACT001, dimethylamino micheliolide]
difference in pulmonary coefficient versus the normal group [1]: no significant difference | pulmonary coefficient lower relative to the control group [1]: 0.47% | average lung weight (after 3 weeks of drug administration, normal group 0.4012 g, control group 0.5983 g): 0.4034 g | average of pulmonary coefficient (lung wet mass/body weight*100%) (after 3 weeks of drug administration, normal group 0.81%, control group 1.32%): 0.85% | average body weight (after 3 weeks of drug administration, normal group 49.2352 g, control group 45.4575 g): 47.576 g | blood supply in the lung tissue (lung tissue morphology under stereoscopic microscope) (second week after ACT001 administration, intragastric 0.1 mL of 10 mg/mL solution once every 2 days, started 3 weeks after modeling, compared with control group): significant improvement of blood supply in the lung tissue | alveolar structures (lung tissue section, H.E. staining) [2]: restored to normal | deposition in the lung interstitials (lung tissue section, H.E. staining) [2]: significantly reduced | fibrosis degree of the lung (lung tissue section, H.E. staining) (second week after ACT001 administration, intragastric 0.1 mL once every 2 days, compared with control group): significant improvement for the fibrosis degree of the lung | level of pulmonary fibrosis (lung tissue morphology and tissue section) (third week after ACT001 administration, compared with control group): significantly reduced
